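Cells were grown in 96-well plates and exposed to each compound for 48 hours at five concentrations; endpoints were interpolated linearly between bracketing concentrations, or set to the highest concentration if not reached. At the GI50, growth is halved. TGI denotes the concentration required for complete inhibition of growth.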 Where only a bound is given, the exact number is not on record here.

Among the test systems are A549 NSCLC; UACC-257 melanoma; SNB-75 CNS; PC-3 prostate; OVCAR-4 ovarian; NCI/ADR-RES ovarian; OVCAR-3 ovarian; CAKI-1 renal; A498 renal; NCI-H522 lung.
What all share (assay): NCI anticancer screen, dose series, 48 h

With `CN(C)c1ccc2c(c1)Sc1cc(N(C)C)ccc1N2C(=O)c1ccccc1`, the GI50 was 32.5 µM in the assay on A549 NSCLC; more than 100 µM in the assay on UACC-257 melanoma; 15.4 µM in the assay on SNB-75 CNS; 12.9 µM in the assay on PC-3 prostate; 44.6 µM with OVCAR-4 ovarian; 33.7 µM with NCI/ADR-RES ovarian. The GI50 in the assay with OVCAR-3 ovarian was 25.7 µM; in the assay with CAKI-1 renal it was 14.7 µM; in the assay on A498 renal, 32.3 µM. The TGI with A549 NSCLC is more than 100 µM; in the assay on UACC-257 melanoma it was more than 100 µM; in the assay on SNB-75 CNS, 66.3 µM; in the assay with PC-3 prostate, more than 100 µM; with OVCAR-4 ovarian, more than 100 µM; in the assay on NCI/ADR-RES ovarian, more than 100 µM. In addition, the TGI in the assay on OVCAR-3 ovarian, in the assay with CAKI-1 renal and with A498 renal was more than 100 µM in each case.
Turning to `C=CC(=O)N1CCN(c2ccc3cccc(NC(=O)c4cnc(C)cn4)c3n2)CC1`, the GI50 was 3.77 µM with A549 NSCLC; 9.21 µM in the assay with UACC-257 melanoma; 0.565 µM in the assay on SNB-75 CNS; 2.86 µM in the assay on PC-3 prostate; 2.66 µM in the assay with OVCAR-4 ovarian; 3.19 µM in the assay on NCI/ADR-RES ovarian. Besides, the GI50 in the assay on OVCAR-3 ovarian was 2.91 µM; in the assay on CAKI-1 renal, 0.555 µM; with A498 renal it was 0.388 µM; in the assay with NCI-H522 lung, 1.99 µM. In addition, the TGI with A549 NSCLC was more than 100 µM; in the assay with UACC-257 melanoma it was 36.7 µM; in the assay with SNB-75 CNS, 9.66 µM; with PC-3 prostate it was 26.5 µM; in the assay on OVCAR-4 ovarian, more than 100 µM; with NCI/ADR-RES ovarian, more than 100 µM. The TGI with OVCAR-3 ovarian was more than 100 µM; in the assay on CAKI-1 renal, 11.5 µM; in the assay with A498 renal, 4.19 µM; with NCI-H522 lung it was 17.8 µM.
For `COc1ccc(C2CC(c3cc(OC)c(OC)c(OC)c3)=NN2C(C)=O)cc1OCC(=O)Nc1nc2ccc(C(F)(F)F)cc2s1` (stereo unspecified), the GI50 with SNB-75 CNS is 1.55 µM; in the assay on PC-3 prostate, 2.92 µM; in the assay on OVCAR-4 ovarian, 2.9 µM; with NCI/ADR-RES ovarian it was 3.13 µM; in the assay with A498 renal it was 2.78 µM; with NCI-H522 lung, 2.71 µM. The TGI with SNB-75 CNS is 4.78 µM; in the assay with PC-3 prostate it was more than 100 µM; in the assay on OVCAR-4 ovarian, more than 100 µM; with NCI/ADR-RES ovarian, more than 100 µM; in the assay with A498 renal, 9.7 µM; in the assay on NCI-H522 lung it was more than 100 µM.
Take `CCN(C(=O)N1CCN(c2cc3c(cc2F)c(=O)c(C(=O)O)cn3C2CC2)CC1)c1nc(-c2ccc(C)cc2)cs1`: the GI50 was 0.42 µM in the assay with A549 NSCLC; 1.09 µM in the assay with SNB-75 CNS; 0.375 µM with PC-3 prostate; 0.368 µM with OVCAR-3 ovarian; 1.4 µM in the assay with CAKI-1 renal; 1.02 µM in the assay on NCI-H522 lung. The TGI in the assay with A549 NSCLC was more than 100 µM; in the assay with SNB-75 CNS, 5.08 µM; in the assay on PC-3 prostate it was more than 100 µM; in the assay on OVCAR-3 ovarian, 2.47 µM; in the assay on CAKI-1 renal, more than 100 µM; in the assay with A498 renal, 0.486 µM.
For `C=CCOC1OC(CO[Si](C)(C)C(C)(C)C)C(OCc2ccccc2)C(OCc2ccccc2)C1OCc1ccccc1` (stereo unspecified), the TGI in the assay on A549 NSCLC is more than 100 µM; in the assay with UACC-257 melanoma, more than 100 µM; with SNB-75 CNS, 51.1 µM; in the assay on PC-3 prostate it was more than 100 µM; in the assay on OVCAR-4 ovarian, more than 100 µM; in the assay with NCI/ADR-RES ovarian it was more than 100 µM. For the same compound, the TGI with OVCAR-3 ovarian, with CAKI-1 renal and with NCI-H522 lung was more than 100 µM each time.
For the compound `COc1cc2c(cc1OCCCCOc1cc3c(cc1OC)C(=O)N1CCC[C@H]1CN3)N=C[C@@H]1CCCN1C2=O`, the GI50 in the assay with A549 NSCLC was 9.21 µM; in the assay with UACC-257 melanoma, 5.64 µM; in the assay with SNB-75 CNS, 3.58 µM; in the assay on PC-3 prostate, 2.02 µM; in the assay with OVCAR-4 ovarian it was 4.61 µM; in the assay with NCI/ADR-RES ovarian, 45 µM. Further, the GI50 in the assay on OVCAR-3 ovarian was 2.05 µM; in the assay on CAKI-1 renal it was 0.344 µM; with NCI-H522 lung, 0.072 µM. Moreover, the TGI is more than 100 µM with A549 NSCLC; more than 100 µM with UACC-257 melanoma; 16.9 µM in the assay with SNB-75 CNS; 97.9 µM in the assay on PC-3 prostate; more than 100 µM in the assay on OVCAR-4 ovarian; more than 100 µM in the assay with NCI/ADR-RES ovarian. Further, the results for the TGI in the assay on OVCAR-3 ovarian and with NCI-H522 lung were 6.38 µM and 0.386 µM, respectively.
As for `c1ccc2c(c1)c(NCCCCN1CCCCC1)cc1c3ccccc3c(NCCCCN3CCCCC3)cc21`, the GI50 in the assay on A549 NSCLC is 21.8 µM; in the assay with UACC-257 melanoma it was 2.67 µM; with PC-3 prostate, 13.4 µM; with NCI/ADR-RES ovarian, 16.6 µM; in the assay with OVCAR-3 ovarian, 19.5 µM; in the assay on CAKI-1 renal, 21 µM. For the same compound, the GI50 with A498 renal was 13.6 µM; in the assay with NCI-H522 lung, 66.2 µM. The TGI with A549 NSCLC was 56.6 µM; with UACC-257 melanoma it was 6.36 µM; with PC-3 prostate it was 78.5 µM; in the assay with NCI/ADR-RES ovarian, 38.4 µM; with OVCAR-3 ovarian, 87.2 µM; in the assay with CAKI-1 renal it was 46.1 µM. The TGI in the assay on A498 renal was 32.9 µM; with NCI-H522 lung it was more than 100 µM.
As to `O=C(/C(=C/c1ccc([N+](=O)[O-])cc1)c1ccccc1)c1ccccc1`, the GI50 was 3.8 µM with A549 NSCLC; 2.11 µM with SNB-75 CNS; 4.28 µM in the assay with PC-3 prostate; 3.57 µM with OVCAR-4 ovarian; 3.23 µM with NCI/ADR-RES ovarian; 2.36 µM in the assay with OVCAR-3 ovarian. For the same compound, in the assay on A498 renal, the GI50 is 1.98 µM. Moreover, the TGI in the assay with A549 NSCLC was more than 100 µM; with SNB-75 CNS, 7.32 µM; in the assay with PC-3 prostate, more than 100 µM; with OVCAR-4 ovarian, more than 100 µM; with NCI/ADR-RES ovarian, more than 100 µM; in the assay on OVCAR-3 ovarian, 5.64 µM. In the assay with A498 renal, this compound registered a TGI of 8.86 µM.
Consider `O=C(C1CCCCC1)[C@@H]1[C@]2(C(=O)NC3CCCCC32)[C@@H]2CCCN2[C@@]12C(=O)NC1CCC(Cl)CC12` (stereo partly specified), for which the GI50 was 135 µM with A549 NSCLC; 135 µM with UACC-257 melanoma; 58.1 µM with SNB-75 CNS; 64.4 µM in the assay with OVCAR-4 ovarian; 127 µM with NCI/ADR-RES ovarian; 78.2 µM in the assay with OVCAR-3 ovarian. Further, the GI50 is 80.8 µM in the assay on CAKI-1 renal, 130 µM in the assay with A498 renal and 120 µM with NCI-H522 lung. The TGI in the assay on A549 NSCLC stood at 379 µM; in the assay on UACC-257 melanoma, 288 µM; with SNB-75 CNS it was 256 µM; in the assay with OVCAR-4 ovarian, 218 µM; in the assay on NCI/ADR-RES ovarian it was 310 µM; with OVCAR-3 ovarian, 210 µM. Also, the TGI with CAKI-1 renal is 225 µM; with A498 renal it was 265 µM; with NCI-H522 lung it was 281 µM.

The values are drawn from PubChem BioAssay (NCI).
